Data as given in paper PMC7020211, “Inhibition of Digestive Enzymes and Antioxidant Activity of Extracts from Fruits of Cornus alba, Cornus sanguinea subsp. hungarica and Cornus florida–A Comparative Study” (Plants, 2020).

Molecular target: α-glucosidase
Experiment: not given
Set-up: method as in doi:10.1016/j.jff.2017.04.005
Settings: cited from earlier work

Molecule	IC50 [µM]
O=C(O)/C=C/c1ccc(O)c(O)c1 [caffeic acid]	223
COc1cc(/C=C/C(=O)O)ccc1O [ferulic acid]	461
O=C(O)c1cc(O)c(O)c(O)c1 [gallic acid]	296
O=c1c(O[C@@H]2O[C@H](CO)[C@@H](O)[C@H](O)[C@H]2O)c(-c2ccc(O)c(O)c2)oc2cc(O)cc(O)c12 [quercetin-3-O-glucoside]	12.3
kaempferol-3-O-rutinoside	10.2

Tested on: not given
Experiment: not given
Set-up: method as in PMID 11958615
Settings: concentration of 40 µM; cited from earlier work

Molecule	antioxidant activity [%]
OC[C@H]1O[C@@H](Oc2cc3c(O)cc(O)cc3[o+]c2-c2ccc(O)c(O)c2)[C@H](O)[C@@H](O)[C@H]1O [cyanidin 3-O-β-galactoside]	60.1
OC[C@H]1O[C@@H](Oc2cc3c(O)cc(O)cc3[o+]c2-c2cc(O)c(O)c(O)c2)[C@H](O)[C@@H](O)[C@H]1O [delphinidin 3-O-β-galactoside]	70.2
OCC1OC(Oc2cc3c(O)cc(O)cc3[o+]c2-c2ccc(O)cc2)C(O)C(O)C1O (stereo not drawn) [pelargonidin 3-O-β-galactoside]	40.3

Molecular target: α-glucosidase from Saccharomyces cerevisiae (Saccharomyces cerevisiae, UniProt P53341)
Sequence (P53341 whole entry): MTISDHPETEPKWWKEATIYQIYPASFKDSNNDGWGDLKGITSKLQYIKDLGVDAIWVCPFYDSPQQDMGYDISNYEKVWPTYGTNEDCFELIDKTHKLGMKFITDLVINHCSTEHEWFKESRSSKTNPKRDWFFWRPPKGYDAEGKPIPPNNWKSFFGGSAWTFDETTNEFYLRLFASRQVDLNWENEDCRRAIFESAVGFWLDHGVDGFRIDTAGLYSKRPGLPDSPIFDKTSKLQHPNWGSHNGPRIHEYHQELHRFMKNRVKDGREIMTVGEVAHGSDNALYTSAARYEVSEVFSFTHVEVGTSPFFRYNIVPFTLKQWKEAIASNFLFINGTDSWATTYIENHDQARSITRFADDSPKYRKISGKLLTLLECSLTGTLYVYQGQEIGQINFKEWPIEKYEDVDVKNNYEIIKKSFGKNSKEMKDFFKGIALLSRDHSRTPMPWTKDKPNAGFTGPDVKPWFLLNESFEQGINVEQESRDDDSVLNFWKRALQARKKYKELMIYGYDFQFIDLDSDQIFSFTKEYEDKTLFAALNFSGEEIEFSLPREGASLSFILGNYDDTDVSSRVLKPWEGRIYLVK
Experiment: α-glucosidase inhibition (pNPG, spectrophotometric)
Format: biochemical
Settings: pNPG substrate, pH 6.8, 37 °C; read-out: IC50 [mM] inhibition of α-glucosidase by compounds isolated from fruit of Cornus alba
Text: Acetonitrile (MeCN, UHPLC-grade), n-butanol (BuOH), chloroform (CHCl3), ethyl acetate (EtOAc), ethanol (EtOH) and methanol (MeOH) for extraction were obtained from POCH (Gliwice, Poland). Natural product reagent A (diphenylboric acid 2-aminoethyl ester) and quercetin 3-O-glucoside (isoquercitrin) were purchased from Carl Roth GmbH (Karlsruhe, Germany). […] Quercetin 3-O-galactoside (hyperoside) was purchased from HWI Analytik GmbH (Rheinzaberner, Germany). […] Water was obtained using Millipore Simfilter Simplicity UV (Molsheim, France) water purification system. HPLC-DAD-MS^n analysis was performed on a UHPLC-3000 RS system (Dionex, Germany) with DAD and an AmaZon SL ion trap mass spectrometer with an ESI interface (Bruker Daltonik GmbH, Germany). […] If needed, additional experiments, such as HSQC and HMBC were performed. The NMR spectra were acquired using Varian VNMRS 300 Oxford 300 MHz spectrometer (Bruker, Billerica, MA, USA).
The α-glucosidase inhibition by extracts was determined spectrophotometrically according to the modified assay previously described. The colorimetric measurement of enzyme activity was based on the hydrolytic cleavage of a substrate, p-nitrophenyl-α-D-glucopyranoside (pNPG). Briefly, sample solution of tested extract or isolated compound (150 µl) dissolved in 0.1 M phosphate buffer (pH 6.8) was incubated with 50 µL of α-glucosidase solution (0.4 U/mL) at 37 °C. After 15 min of incubation, the substrate solution (0.7 mM in 0.1 M phosphate buffer, pH 6.8) was added and the second 15 min incubation at 37 °C was performed. The reaction was terminated by adding 50 µL sodium carbonate solution (0.2 M). The absorbance of p-nitrophenol was measured at 405 nm in a microplate reader (Synergy 4, Biotek, USA).

Molecule	IC50 [mM]
O=C(C=Cc1ccc(O)cc1)OC1CC(O)(C(=O)O)CC(O)C1O (centres unmarked) [compound 2, 5-O-coumaroylquinic acid]	0.84 ± 0.14
COC(=O)C1(O)CC(O)C(O)C(OC(=O)/C=C/c2ccc(O)cc2)C1 (centres unmarked) [compound 3, 5-O-(E)-p-coumaroylquinic acid methyl ester]	0.16 ± 0.01
COC(=O)[C@H]1O[C@@H](Oc2c(-c3ccc(O)cc3)oc3cc(O)cc(O)c3c2=O)[C@H](O)[C@@H](O)[C@@H]1O [compound 4, kaempferol 3-O-glucuronide 6″-methylester]	0.21 ± 0.05
OC[C@H]1O[C@@H](OCCc2ccc(O)c(O)c2)[C@H](O)[C@@H](O)[C@@H]1O [compound 5, hydroxytyrosol glucoside]	1.46 ± 0.18

Tested on: glucosidase
Experiment: not given
Set-up: method as in Dehghan et al., 2018
Settings: ref Dehghan et al., 2018; cited from earlier work

Molecule	anti-glucosidase activity (in words)
Cc1cc(O)c2c(c1)C(=O)c1cc(O)cc(O)c1C2=O [emodin]	relevant anti-glucosidase activity
COc1cc(O)c2c(c1)C(=O)c1cc(C)cc(O)c1C2=O [physcion]	relevant anti-glucosidase activity
C[C@H](CCc1ccc(O)cc1)O[C@@H]1O[C@H](CO)[C@@H](O)[C@H](O)[C@H]1O [rhododendrin]	relevant anti-glucosidase activity

Tested on: not listed separately
Experiment: DPPH radical scavenging assay
Settings: half scavenging concentration; 30 min incubation, absorbance 518 nm
Description: The scavenging of DPPH radical was examined using a modified assay previously described. The equal volumes (100 µL) of ethanolic solution of DPPH (0.02 M) and extract samples dissolved in 50% (v/v) aqueous-ethanol were added into 96-well microplates and incubated for 30 min in the darkness. The absorbance was measured at 518 nm with microplate reader (Synergy 4, Biotek, USA). The blind samples were prepared in order to exclude color interference. Ascorbic acid was used as a positive control.

Molecule	SC50 DPPH scavenging [µg/mL]
O=C1O[C@H]([C@@H](O)CO)C(O)=C1O [Ascorbic acid]	3.73 ± 0.83

Tested on: PL
Experiment: not given
Set-up: method as in doi:10.1016/j.jff.2017.04.005
Settings: read-out: IC50 against PL activity; cited from earlier work

Molecule	IC50 [µM]
O=C(/C=C/c1ccc(O)c(O)c1)O[C@@H]1C[C@](O)(C(=O)O)C[C@@H](O)[C@H]1O [compound 1, chlorogenic acid]	3810
O=C(O)c1cc(O)c(O)c(O)c1 [gallic acid]	5050
O=c1c(O[C@@H]2O[C@H](CO)[C@@H](O)[C@H](O)[C@H]2O)c(-c2ccc(O)cc2)oc2cc(O)cc(O)c12 [kaempferol-3-O-glucoside]	3520
O=c1c(O[C@@H]2O[C@H](CO)[C@@H](O)[C@H](O)[C@H]2O)c(-c2ccc(O)c(O)c2)oc2cc(O)cc(O)c12 [quercetin-3-O-glucoside]	1740
